# Where “and” joins values, the source holds several entries; their conditions need not be identical. Equal entries are not always repeated. Inconclusive results and toxic doses are left out.
# System: L1210 leukemia ip in BDF1 mice, survival T/C
# Test: NCI In Vivo Anticancer Drug Screen. Data for tumor model L1210 Leukemia (intraperitoneal) in B6D2F1 (BDF1) mice
# Details: endpoint: mean survival time, higher = longer survival
# Summary of the method: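 Mice bearing the transplanted tumor received compound or vehicle. Survival of the treated group was divided by that of the vehicle-treated control group to give the ratio.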
# [1] = dose: 100.0 mg/kg/injection, schedule: Q04DX003 (ip), vehicle: saline with Tween-80
# [2] = dose: 75.0 mg/kg/injection, schedule: Q01DX001 (ip), vehicle: other
# [3] = dose: 100.0 mg/kg/injection, schedule: Q01DX001 (ip), vehicle: carboxymethylcellulose (CMC)
# [4] = dose: 200.0 mg/kg/injection, schedule: Q01DX001 (ip), vehicle: carboxymethylcellulose (CMC)
# [5] = dose: 400.0 mg/kg/injection, schedule: Q01DX001 (ip), vehicle: carboxymethylcellulose (CMC)
# [6] = dose: 100.0 mg/kg/injection, schedule: Q01DX001 (ip), vehicle: other
# [7] = dose: 200.0 mg/kg/injection, schedule: Q01DX001 (ip), vehicle: other
# [8] = dose: 400.0 mg/kg/injection, schedule: Q01DX001 (ip), vehicle: other
# [9] = dose: 100.0 mg/kg/injection, schedule: Q04DX002 (ip), vehicle: saline with Tween-80
# [10] = dose: 200.0 mg/kg/injection, schedule: Q04DX002 (ip), vehicle: saline with Tween-80
# [11] = dose: 400.0 mg/kg/injection, schedule: Q04DX002 (ip), vehicle: saline with Tween-80
# [12] = dose: 50.0 mg/kg/injection, schedule: Q01DX009 (ip), vehicle: Klucel (hydroxypropylcellulose) (HPC)
# [13] = dose: 100.0 mg/kg/injection, schedule: Q01DX009 (ip), vehicle: Klucel (hydroxypropylcellulose) (HPC)
# [14] = dose: 200.0 mg/kg/injection, schedule: Q01DX009 (ip), vehicle: Klucel (hydroxypropylcellulose) (HPC)
# [15] = dose: 100.0 mg/kg/injection, schedule: Q01DX009 (ip), vehicle: saline with Tween-80
# [16] = dose: 200.0 mg/kg/injection, schedule: Q01DX009 (ip), vehicle: saline with Tween-80
# [17] = dose: 75.0 mg/kg/injection, schedule: Q01DX001 (ip), vehicle: saline
# [18] = dose: 100.0 mg/kg/injection, schedule: Q01DX001 (ip), vehicle: saline
# [19] = dose: 200.0 mg/kg/injection, schedule: Q01DX001 (ip), vehicle: saline
compound,measurement,setting,value
COc1ccc(OC)c(C(=O)CSC(=S)OC(C)C)c1,T/C,"dose: 100.0 mg/kg/injection, schedule: Q04DX002 (ip), vehicle: Klucel (hydroxypropylcellulose) (HPC)",96 % of control
same,T/C,"dose: 200.0 mg/kg/injection, schedule: Q04DX002 (ip), vehicle: Klucel (hydroxypropylcellulose) (HPC)",92 % of control
same,T/C,"dose: 400.0 mg/kg/injection, schedule: Q04DX002 (ip), vehicle: Klucel (hydroxypropylcellulose) (HPC)",96 % of control
Nc1ncnc2nc(-c3ccc(Cl)c(Cl)c3)[nH]c12,T/C,"dose: 37.5 mg/kg/injection, schedule: Q01DX001 (ip), vehicle: saline with Tween-80",93 % of control
same,T/C,"dose: 75.0 mg/kg/injection, schedule: Q01DX001 (ip), vehicle: saline with Tween-80",87 % of control
same,T/C,"dose: 150.0 mg/kg/injection, schedule: Q01DX001 (ip), vehicle: saline with Tween-80",87 % of control
O=C1CCSC(=S)N1c1cccc(C(F)(F)F)c1,T/C,"dose: 25.0 mg/kg/injection, schedule: Q04DX003 (ip), vehicle: saline with Tween-80",101 % of control
same,T/C,"dose: 50.0 mg/kg/injection, schedule: Q04DX003 (ip), vehicle: saline with Tween-80",104 % of control
same,T/C,[1],104 % of control
Cc1ncc2c(n1)NC(c1ccc(Cl)cc1)=NC2,T/C,[2],91 % of control
same,T/C,"dose: 150.0 mg/kg/injection, schedule: Q01DX001 (ip), vehicle: other",100 % of control
same,T/C,"dose: 300.0 mg/kg/injection, schedule: Q01DX001 (ip), vehicle: other",96 % of control
O=C1O/C(=C\c2ccccc2)c2c(Br)c(Br)c(Br)c(Br)c21,T/C,[3],94 % of control
same,T/C,[4],91 % of control
same,T/C,[5],96 % of control
NC1=C(c2ccccc2)C(=O)C(N)=C(c2ccccc2)C1=O,T/C,[3],96 % of control
same,T/C,[4],88 % of control
same,T/C,[5],88 % of control
O=C1c2cccc3cc([N+](=O)[O-])cc(c23)C(=O)N1CC1CCCO1 (stereo unspecified),T/C,"dose: 100.0 mg/kg/injection, schedule: Q04DX003 (ip), vehicle: carboxymethylcellulose (CMC)",94 % of control
same,T/C,"dose: 200.0 mg/kg/injection, schedule: Q04DX003 (ip), vehicle: carboxymethylcellulose (CMC)",96 % of control
same,T/C,"dose: 400.0 mg/kg/injection, schedule: Q04DX003 (ip), vehicle: carboxymethylcellulose (CMC)",107 % of control
COC(=O)C(O)(C#CC(C)(C)C)c1ccccc1 (stereo unspecified),T/C,[6],86 % of control
same,T/C,[7],91 % of control
same,T/C,[8],96 % of control
O=C1OCC2C1C1CCC2C1(Cl)Cl (stereo unspecified),T/C,[2],98 % of control
O=C(/C=C/c1ccccc1Cl)c1ccc(F)cc1,T/C,[9],94 % of control
same,T/C,[10],94 % of control
same,T/C,[11],97 % of control
O=C1OC2C3c4ccccc4C(c4c3cc(F)c3ccccc43)C2O1 (stereo unspecified),T/C,"dose: 100.0 mg/kg/injection, schedule: Q04DX003 (ip), vehicle: Klucel (hydroxypropylcellulose) (HPC)",100 % of control
same,T/C,"dose: 200.0 mg/kg/injection, schedule: Q04DX003 (ip), vehicle: Klucel (hydroxypropylcellulose) (HPC)",97 % of control
same,T/C,"dose: 400.0 mg/kg/injection, schedule: Q04DX003 (ip), vehicle: Klucel (hydroxypropylcellulose) (HPC)",95 % of control
O=C1OC(=O)C2=C1C1C3C=CCC3C2N2C=CC=CC12 (stereo unspecified),T/C,[12],96 % of control
same,T/C,[13],103 % of control
same,T/C,[14],103 % of control
O=[N+]([O-])c1ccc(/C=C/C=C/c2ccc(Cl)cc2Cl)cc1,T/C,[15],94 % of control
same,T/C,[16],94 % of control
Brc1ccc(N2N=C(c3ccccc3)N(c3ccc(Br)cc3)N=C2c2ccccc2)cc1,T/C,[6],90 % of control
same,T/C,"dose: 100.0 mg/kg/injection, schedule: Q04DX003 (ip), vehicle: other",104 % of control
same,T/C,[7],93 % of control
same,T/C,"dose: 200.0 mg/kg/injection, schedule: Q04DX003 (ip), vehicle: other",89 % of control
same,T/C,[8],95 % of control
same,T/C,"dose: 400.0 mg/kg/injection, schedule: Q04DX003 (ip), vehicle: other",89 % of control
O=C(CN1CCCCC1)Nc1ccc(S(=O)(=O)c2ccc([N+](=O)[O-])cc2)cc1,T/C,[17],87 % of control
Cc1ccc(S(=O)(=O)O)cn1,T/C,[18],94 % of control
same,T/C,[19],97 % of control
same,T/C,"dose: 400.0 mg/kg/injection, schedule: Q01DX001 (ip), vehicle: saline",92 % of control
CCCC1OC(C)C(C)O1 (stereo unspecified),T/C,[12],101 % of control
same,T/C,[13],101 % of control
same,T/C,[14],101 % of control
CCOCCS(=O)(=O)CCS(=O)(=O)CCOCC,T/C,"dose: 100.0 mg/kg/injection, schedule: Q01DX009 (ip), vehicle: saline",95 % of control
same,T/C,"dose: 200.0 mg/kg/injection, schedule: Q01DX009 (ip), vehicle: saline",103 % of control
same,T/C,"dose: 400.0 mg/kg/injection, schedule: Q01DX009 (ip), vehicle: saline",108 % of control
C[N+]1(C)OCC2CCCC(c3ccccc3)C21 (stereo unspecified),T/C,"dose: 12.5 mg/kg/injection, schedule: Q01DX001 (ip), vehicle: saline",104 % of control
same,T/C,"dose: 25.0 mg/kg/injection, schedule: Q01DX001 (ip), vehicle: saline",102 % of control
same,T/C,"dose: 50.0 mg/kg/injection, schedule: Q01DX001 (ip), vehicle: saline",98 % of control
C/C=C/CCCCC,T/C,"dose: 50.0 mg/kg/injection, schedule: Q01DX009 (ip), vehicle: saline with Tween-80",102 % of control
same,T/C,[15],118 % of control
same,T/C,[16],94 % of control
C/C(=C\Cl)CO,T/C,[1],97 % of control
same,T/C,"dose: 200.0 mg/kg/injection, schedule: Q04DX003 (ip), vehicle: saline with Tween-80",95 % of control
S=C(NNc1ccccc1)NC1CCCCC1,T/C,"dose: 150.0 mg/kg/injection, schedule: Q01DX009 (ip), vehicle: saline with Tween-80",95 % of control
same,T/C,"dose: 225.0 mg/kg/injection, schedule: Q01DX009 (ip), vehicle: saline with Tween-80",97 % of control
same,T/C,"dose: 335.0 mg/kg/injection, schedule: Q01DX009 (ip), vehicle: saline with Tween-80",92 % of control
CC1CC(C)(C)NC(=S)O1 (stereo unspecified),T/C,"dose: 15.0 mg/kg/injection, schedule: Q01DX001 (ip), vehicle: carboxymethylcellulose (CMC)",101 % of control
same,T/C,"dose: 30.0 mg/kg/injection, schedule: Q01DX001 (ip), vehicle: carboxymethylcellulose (CMC)",102 % of control
O=C1C(=O)c2ccccc2C(O)=C1c1ccc(Br)cc1,T/C,"dose: 50.0 mg/kg/injection, schedule: Q01DX001 (ip), vehicle: carboxymethylcellulose (CMC)",120 % of control
same,T/C,[3],103 % of control
O=[N+]([O-])/C=C/c1cccc2ccccc12,T/C,[17],94 % of control
same,T/C,"dose: 150.0 mg/kg/injection, schedule: Q01DX001 (ip), vehicle: saline",94 % of control
same,T/C,"dose: 300.0 mg/kg/injection, schedule: Q01DX001 (ip), vehicle: saline",101 % of control
[O]=[Sn]([OH])[c]1ccccc1,T/C,[9],102 % of control
same,T/C,[10],105 % of control
same,T/C,[11],94 % of control
COC(=O)C1CC2CCC1O2 (stereo unspecified),T/C,"dose: 100.0 mg/kg/injection, schedule: Q01DX009 (ip), vehicle: carboxymethylcellulose (CMC)",100 % of control
same,T/C,"dose: 200.0 mg/kg/injection, schedule: Q01DX009 (ip), vehicle: carboxymethylcellulose (CMC)",98 % of control
same,T/C,"dose: 400.0 mg/kg/injection, schedule: Q01DX009 (ip), vehicle: carboxymethylcellulose (CMC)",94 % of control
CC(C)NCCCN,T/C,"dose: 25.0 mg/kg/injection, schedule: Q04DX002 (ip), vehicle: saline with Tween-80",98 % of control
same,T/C,"dose: 50.0 mg/kg/injection, schedule: Q04DX002 (ip), vehicle: saline with Tween-80",98 % of control
same,T/C,[18],103 % of control
same,T/C,[9],101 % of control and 106 % of control
same,T/C,[19],109 % of control

# From PubChem BioAssay AID248 (DTP/NCI, 2004)
